Patent US20230085307A1, “PYRIDAZINONE COMPOUND AND HERBICIDE” (NISSAN CHEMICAL CORPORATION, priority 2019, published 2023)

Assays:
barnyard grass [1] = assay: Test Example 3: herbicidal effect by foliage application, Wagner pot (Table 18, symbol H); format: in vivo, barnyard grass (Echinochloa crus-galli); settings: 320 g/ha
Summary of the method: (§1)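 Plants were sown in alluvial soil held under 0.1–0.5 cm standing water and grown 14 days in a greenhouse at 25–30 °C. An emulsifiable formulation, water-diluted to the set dose, was then sprayed onto the foliage, and effects were scored three weeks later using previously defined criteria.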

Chinese sprangletop = assay: Test Example 3: herbicidal effect by foliage application, Wagner pot (Table 18, symbol D); format: in vivo, chinese sprangletop (Leptochloa chinensis); settings: 320 g/ha
Summary of the method: as §1

rice flat sedge = assay: Test Example 3: herbicidal effect by foliage application, Wagner pot (Table 18, symbol E); format: in vivo, rice flat sedge (Cyperus iria); settings: 320 g/ha
Summary of the method: as §1

southern crabgrass [2] = assay: Test Example 4: herbicidal effect by soil treatment (Table 19, symbol F); format: in vivo, southern crabgrass (Digitaria ciliaris); settings: AAH 320 g/ha
Summary of the method: (§2)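 In this soil treatment, the formulated compound reached the seeds only through the soil: seeds were buried about 1.5 cm deep in sterilized diluvial soil, then the diluted emulsion was sprayed over the surface. After three weeks at 25° C. to 30° C. in a greenhouse, effects were graded on criteria from an earlier test.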

green foxtail [3] = assay: Test Example 4: herbicidal effect by soil treatment (Table 19, symbol G); format: in vivo, green foxtail (Setaria viridis); settings: AAH 320 g/ha
Summary of the method: as §2

barnyard grass [4] = assay: Test Example 4: herbicidal effect by soil treatment (Table 19, symbol H); format: in vivo, barnyard grass (Echinochloa crus-galli); settings: AAH 320 g/ha
Summary of the method: as §2

wild oat [5] = assay: Test Example 4: herbicidal effect by soil treatment (Table 19, symbol I); format: in vivo, wild oat (Avena fatua); settings: AAH 320 g/ha
Summary of the method: as §2

blackgrass [6] = assay: Test Example 4: herbicidal effect by soil treatment (Table 19, symbol J); format: in vivo, blackgrass (Alopecurus myosuroides); settings: AAH 320 g/ha
Summary of the method: as §2

Italian ryegrass [7] = assay: Test Example 4: herbicidal effect by soil treatment (Table 19, symbol K); format: in vivo, Italian ryegrass (Lolium multiflorum); settings: AAH 320 g/ha
Summary of the method: as §2

windgrass [8] = assay: Test Example 4: herbicidal effect by soil treatment (Table 19, symbol L); format: in vivo, windgrass (Apera spica-venti); settings: AAH 320 g/ha
Summary of the method: as §2

velvetleaf [9] = assay: Test Example 4: herbicidal effect by soil treatment (Table 19, symbol M); format: in vivo, velvetleaf (Abutilon theophrasti); settings: AAH 320 g/ha
Summary of the method: as §2

redroot pigweed = assay: Test Example 4: herbicidal effect by soil treatment (Table 19, symbol N); format: in vivo, redroot pigweed (Amaranthus retroflexus); settings: AAH 320 g/ha
Summary of the method: as §2

lambsquarters [10] = assay: Test Example 4: herbicidal effect by soil treatment (Table 19, symbol O); format: in vivo, lambsquarters (Chenopodium album); settings: AAH 320 g/ha
Summary of the method: as §2

chickweed = assay: Test Example 4: herbicidal effect by soil treatment (Table 19, symbol P); format: in vivo, common chickweed (Stellaria media); settings: AAH 320 g/ha
Summary of the method: as §2

persian speedwell [11] = assay: Test Example 4: herbicidal effect by soil treatment (Table 19, symbol R); format: in vivo, Persian speedwell (Veronica persica); settings: AAH 320 g/ha
Summary of the method: as §2

southern crabgrass [12] = assay: Test Example 5: herbicidal effect by foliage application, plastic box (Table 20, symbol F); format: in vivo, southern crabgrass (Digitaria ciliaris); settings: foliage application, 320 g/ha, 3 weeks after application
Summary of the method: (§3)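 Plants were sown into sterilized diluvial soil under about 1.5 cm cover and kept in a greenhouse at 25° C. to 30° C. Fourteen days on, foliage received an even spray of the diluted emulsion. Herbicidal or crop effect was judged three weeks afterwards.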

green foxtail [13] = assay: Test Example 5: herbicidal effect by foliage application, plastic box (Table 20, symbol G); format: in vivo, green foxtail (Setaria viridis); settings: foliage application, 320 g/ha, 3 weeks after application
Summary of the method: as §3

barnyard grass [14] = assay: Test Example 5: herbicidal effect by foliage application, plastic box (Table 20, symbol H); format: in vivo, barnyard grass (Echinochloa crus-galli); settings: foliage application, 320 g/ha, 3 weeks after application
Summary of the method: as §3

wild oat [15] = assay: Test Example 5: herbicidal effect by foliage application, plastic box (Table 20, symbol I); format: in vivo, wild oat (Avena fatua); settings: foliage application, 320 g/ha, 3 weeks after application
Summary of the method: as §3

blackgrass [16] = assay: Test Example 5: herbicidal effect by foliage application, plastic box (Table 20, symbol J); format: in vivo, blackgrass (Alopecurus myosuroides); settings: foliage application, 320 g/ha, 3 weeks after application
Summary of the method: as §3

Italian ryegrass [17] = assay: Test Example 5: herbicidal effect by foliage application, plastic box (Table 20, symbol K); format: in vivo, Italian ryegrass (Lolium multiflorum); settings: foliage application, 320 g/ha, 3 weeks after application
Summary of the method: as §3

windgrass [18] = assay: Test Example 5: herbicidal effect by foliage application, plastic box (Table 20, symbol L); format: in vivo, windgrass (Apera spica-venti); settings: foliage application, 320 g/ha, 3 weeks after application
Summary of the method: as §3

velvetleaf [19] = assay: Test Example 5: herbicidal effect by foliage application, plastic box (Table 20, symbol M); format: in vivo, velvetleaf (Abutilon theophrasti); settings: foliage application, 320 g/ha, 3 weeks after application
Summary of the method: as §3

lambsquarters [20] = assay: Test Example 5: herbicidal effect by foliage application, plastic box (Table 20, symbol O); format: in vivo, lambsquarters (Chenopodium album); settings: foliage application, 320 g/ha, 3 weeks after application
Summary of the method: as §3

persian speedwell [21] = assay: Test Example 5: herbicidal effect by foliage application, plastic box (Table 20, symbol R); format: in vivo, Persian speedwell (Veronica persica); settings: foliage application, 320 g/ha, 3 weeks after application
Summary of the method: as §3

With Cc1nn(C)c(=O)c(-c2c(-c3ccc(O)cc3)sc3ccccc23)c1O [1-200] the “herbicidal effect on H (barnyard grass), rating 0-5” value (barnyard grass [1]) was 4 (Herbicidal rate of 70% or more and less than 90%), the “herbicidal effect on D (Chinese sprangletop), rating 0-5” value (Chinese sprangletop) was 3 (Herbicidal rate of 40% or more and less than 70%) and the “herbicidal effect on E (rice flat sedge), rating 0-5” value (rice flat sedge) was 3 (Herbicidal rate of 40% or more and less than 70%). The “F: southern crabgrass, herbicidal effect rating” value (southern crabgrass [2]) was 0 (Herbicidal rate of 5% or less (almost no effect)), the “G: green foxtail, herbicidal effect rating” value (green foxtail [3]) was 0 (Herbicidal rate of 5% or less (almost no effect)) and the “H: barnyard grass, herbicidal effect rating” value (barnyard grass [4]) was 0 (Herbicidal rate of 5% or less (almost no effect)). The “I: wild oat, herbicidal effect rating” value (wild oat [5]) was 0 (Herbicidal rate of 5% or less (almost no effect)), the “J: blackgrass, herbicidal effect rating” value (blackgrass [6]) was 0 (Herbicidal rate of 5% or less (almost no effect)) and the “K: Italian ryegrass, herbicidal effect rating” value (Italian ryegrass [7]) was 0 (Herbicidal rate of 5% or less (almost no effect)). The “L: windgrass, herbicidal effect rating” value (windgrass [8]) was 0 (Herbicidal rate of 5% or less (almost no effect)), the “M: velvetleaf, herbicidal effect rating” value (velvetleaf [9]) was 0 (Herbicidal rate of 5% or less (almost no effect)) and the “N: redroot pigweed, herbicidal effect rating” value (redroot pigweed) was 0 (Herbicidal rate of 5% or less (almost no effect)). For the same compound, the “O: lambsquarters, herbicidal effect rating” value (lambsquarters [10]) was 0 (Herbicidal rate of 5% or less (almost no effect)), the “P: chickweed, herbicidal effect rating” value (chickweed) was 1 (Herbicidal rate of 5% or more and less than 20%) and the “R: persian speedwell, herbicidal effect rating” value (persian speedwell [11]) was 3 (Herbicidal rate of 40% or more and less than 70%). The “effect on southern crabgrass (F)” value (southern crabgrass [12]) was 3 (Herbicidal rate of 40% or more and less than 70%), the “effect on green foxtail (G)” value (green foxtail [13]) was 3 (Herbicidal rate of 40% or more and less than 70%) and the “effect on barnyard grass (H)” value (barnyard grass [14]) was 4 (Herbicidal rate of 70% or more and less than 90%). The “effect on wild oat (I)” value (wild oat [15]) was 0 (Herbicidal rate of 5% or less (almost no effect)), the “effect on blackgrass (J)” value (blackgrass [16]) was 0 (Herbicidal rate of 5% or less (almost no effect)) and the “effect on Italian ryegrass (K)” value (Italian ryegrass [17]) was 1 (Herbicidal rate of 5% or more and less than 20%). For the same compound, the “effect on windgrass (L)” value (windgrass [18]) was 0 (Herbicidal rate of 5% or less (almost no effect)), the “effect on velvetleaf (M)” value (velvetleaf [19]) was 5 (Herbicidal rate of 90% or more (almost completely withered)) and the “effect on lambsquarters (O)” value (lambsquarters [20]) was 4 (Herbicidal rate of 70% or more and less than 90%). For the same compound, the “effect on persian speedwell (R)” value (persian speedwell [21]) was 5 (Herbicidal rate of 90% or more (almost completely withered)).
